Assays:
[1] = Rancimate assay, antioxidative capacity (Example 1); conditions: 0.1% w/w in soya oil; 120° C.; input of air 201/h
Protocol: The antioxidative capacity of substances I-9, I-10 and I-2 is determined in the so-called Rancimate assay. The comparative substances used are 4-t-butyl-1-cyclohexanol and tocopherol. The positive standard employed is BHT. The measurement parameter is the time duration (induction time) of the increase in the conductivity of unstabilised soya oil on exposure to air at elevated temperature. The longer the induction time, the greater the stabilising or antioxidant action. The following boundary conditions were maintained: input of air 201/h; temperature 120° C. and sample concentrations of 0.1% w/w each in soya oil. For each test substance, a relative antioxidation-protection factor is determined, which corresponds to the ratio of the induction times with and without test substance: […]

[2] = tested on: S. epidermidis (ATCC 12228); assay: Growth inhibition by optical density, Bioscreen C (Example 3); format: cell-based, Staphylococcus epidermidis; conditions: 1st experiment; 1.0% sample in water/ethanol (12% of ethanol) diluted 1 to 2 with bacteria suspension; 37° C.; negative control 0.80
Protocol: For sample preparation, the substances being investigated are each dissolved or homogeneously dispersed in an amount of 1.0% in a water/ethanol mixture (12% of ethanol) and subsequently diluted with bacteria suspension in the ratio 1 to 2. S. epidermidis (ATCC 12228) is pre-incubated under aerobic conditions for 24 h at 35° C. on CASO agar (Merck 1.05458). A bacteria suspension having an optical density (OD) of about 1.0 is subsequently prepared in CASO broth (Merck 1.05459, double-concentrated) and diluted again 1:10 in CASO broth. 150 μl of freshly prepared sample are added to 150 μl of bacteria suspension per well. The optical density is determined over the course of time at 37° C. using a Bioscreen C™ analyser compared with the negative control (=vehicle without test substance). Compared with the negative control, reduced optical densities confirm growth-inhibiting substance actions
(§1) Result as optical density of the bacteria suspension after an exposure time of 20 hours: […]

P. acnes (ATCC 6919) = assay: Growth inhibition by optical density, Bioscreen C (Example 4); format: cell-based, Propionibacterium acnes; conditions: 1.0% sample in water/ethanol (12% of ethanol) diluted 1 to 2 with bacteria suspension; 37° C.; negative control 1.0
Protocol: (§2) For sample preparation, the substances being investigated are each dissolved or homogeneously dispersed in an amount of 1.0% in a water/ethanol mixture (12% of ethanol) and subsequently diluted with bacteria suspension in the ratio 1 to 2. P. acnes (ATCC 6919) is pre-incubated under anaerobic conditions for 48 h at 35° C. on RMC agar (Merck 1.05410). A bacteria suspension having an optical density (OD) of about 1.5 is subsequently prepared in RMC broth (Merck 1.05411, double-concentrated). 150 μl of freshly prepared sample and 100 μl of paraffin are added to 150 μl of bacteria suspension per well. The optical density is determined over the course of time at 37° C. using a Bioscreen C™ analyser compared with the negative control (=vehicle without test substance). Compared with the negative control, reduced optical densities confirm growth-inhibiting substance actions.
as §1

Aspergillus brasiliensis = assay: Antimicrobial action, microbe count (Example 6); format: cell-based; conditions: conc. 0.5%, H2O (12% of ethanol), count t0 2.0 × 10^4
Protocol: as §2
(§3) For sample preparation, the substances being investigated are each dissolved or homogeneously dispersed in an amount of 1.0% in a water/ethanol mixture (12% of ethanol) (=sample). A bacteria suspension of S. epidermidis (ATCC 12228) having an optical density of 1.0 in CASO broth (Merck 1.05459) is diluted 1:10000 with CASO broth. 500 μl of sample are added to 500 μl of bacteria suspension, and the mixture is incubated at 35° C. for 24 h. After the incubation, the test batches are diluted to −6 in 10 unit steps, and 0.1 ml of each is plated-out on CASO agar (Merck 1.05458) and incubated at 35° C. for 24 h.
(§4) In order to determine the initial microbe count, 0.1 ml of the bacteria suspension used are plated-out on CASO agar (Merck 1.05458) and incubated at 35° C. for 24 h.
(§5) The colonies are subsequently counted, and the microbe count per ml is determined compared with the negative control (12% of ethanol in water).
(§6) The procedure corresponds to that described in Examples 4 and 5 using the microorganisms shown below. The concentrations indicated are the final use concentrations. In order to prepare the stock solution, double the final concentration were prepared in the solvent indicated. This was subsequently diluted 1:2 with the corresponding microbe suspension. In the case of Aspergillus brasiliensis, the microbe count determination was exceptionally carried out after 48 h.

Corynebacterium xerosis = assay: Antimicrobial action, microbe count (Example 6); format: cell-based; conditions: conc. 0.5%, H2O (12% of ethanol), count t0 3.5 × 10^4
Protocol: as §2, §3, §4, §5, §6

Echerichia coli = assay: Antimicrobial action, microbe count (Example 6); format: cell-based; conditions: conc. 0.5%, H2O (12% of ethanol), count t0 4.6 × 10^4
Protocol: as §2, §3, §4, §5, §6

Malassezia furfur = assay: Antimicrobial action, microbe count (Example 6); format: cell-based; conditions: conc. 1.0%, H2O, count t0 4.0 × 10^2
Protocol: as §2, §3, §4, §5, §6

Propionibacterium acnes = assay: Antimicrobial action, microbe count (Example 6); format: cell-based; conditions: conc. 0.5%, H2O (12% of ethanol), count t0 2.0 × 10^4
Protocol: as §2, §3, §4, §5, §6

Pseudomonas aeruginosa = assay: Antimicrobial action, microbe count (Example 6); format: cell-based; conditions: conc. 0.5%, H2O (12% of ethanol), count t0 6.8 × 10^4
Protocol: as §2, §3, §4, §5, §6

Salmonella enterica = assay: Antimicrobial action, microbe count (Example 6); format: cell-based; conditions: conc. 0.5%; for Δlog: t24 h
Protocol: as §2, §3, §4, §5, §6

Serratia marcescens = assay: Antimicrobial action, microbe count (Example 6); format: cell-based; conditions: conc. 0.5%; for Δlog: t24 h
Protocol: as §2, §3, §4, §5, §6

[3] = tested on: Staphylococcus epidermidis; assay: Antimicrobial action, microbe count (Example 6); format: cell-based; conditions: conc. 0.5%, H2O (12% of ethanol), count t0 3.4 × 10^4
Protocol: as §2, §3, §4, §5, §6

[4] = Densities and viscosities, Ubbelohde viscometer, to estimate spreadability (Example 10); format: physicochemical; conditions: 25° C.
Protocol: Measurement of the Dynamic Viscosities in Order to Estimate the Spreadability at 25° C. After measurement of the densities and kinematic viscosities using an Ubbelohde viscometer, the following dynamic viscosities arise: Since spreadabilities and viscosities of cosmetic emollients correlate well, good spreadabilities can be concluded from the viscosities determined.

[5] = H2O (12% of ethanol), count t0 6.0 × 10^4
[6] = H2O (12% of ethanol), count t0 6.8 × 10^4

## CCOC(=O)C1CCCCC1O (stereo not shown) [Substance I-2]
[1]
  Antioxidation-protection factor (ratio of the induction times with and without test substance): 1.15
[2]
  OD20h, optical density of the bacteria suspension after 20 hours: 0.30
P. acnes (ATCC 6919)
  OD20h, optical density of the bacteria suspension after 20 hours: 0.45
Aspergillus brasiliensis; count after 48 h
  Δlog: −0.30
Aspergillus brasiliensis; count carried out after 48 h
  Microbe count t24 h: 1.0 × 10^4
Corynebacterium xerosis
  Microbe count t24 h: 0
Corynebacterium xerosis; t24 h
  Δlog: −4.54
Echerichia coli
  Microbe count t24 h: 1.8 × 10^3
Echerichia coli; t24 h
  Δlog: −1.41
Malassezia furfur
  Microbe count t24 h: 0
Malassezia furfur; t24 h
  Δlog: −2.60
Propionibacterium acnes
  Microbe count t24 h: 1.2 × 10^4
Propionibacterium acnes; t24 h
  Δlog: −0.22
Pseudomonas aeruginosa
  Microbe count t24 h: 0
Pseudomonas aeruginosa; t24 h
  Δlog: −4.83
Salmonella enterica; [5]
  Microbe count t24 h: 0
  Δlog: −4.78
Salmonella enterica; H2O, count t0 1.0 × 10^6
  Microbe count t24 h: 5.0 × 10^4
  Δlog: −1.30
Serratia marcescens; [6]
  Microbe count t24 h: 0
  Δlog: −3.83
Serratia marcescens; H2O, count t0 2.9 × 10^5
  Microbe count t24 h: 9.0 × 10^5
  Δlog: +0.49
[3]
  Microbe count t24 h: 2.0 × 10^4
[3]; t24 h
  Δlog: −0.23
[4]
  Density: 1.0564 g/mL
  Dynamic viscosity (kinematic viscosity × density): 16.4 mPas
[4]; Ubbelohde viscometer
  Kinematic viscosity: 15.5 mm^2/s

Reference: patent USRE46698E1, “Use of cyclohexanol derivatives as antimicrobial active compounds” (MERCK PATENT GMBH, priority 2011, dated 2018)
